Counter-ions that a name gives are not always drawn.

For one test, the system named is platelet aggregation in human platelet rich plasma (PRP). The test can be described thus: Platelet Aggregation Assay (platelet rich plasma, with or without esterase pretreatment). It counts as cell-based. As to conditions: Platelet, preincubated with 100 IU/mL porcine liver esterase 2 hours at 37° C., 100 μM ADP, read-out: Platelet Aggregation Assay IC50 (with esterase). On the procedure: Venous blood was obtained from the arm of a healthy human donor who was drug-free and aspirin-free for at least two weeks prior to blood collection. Blood was collected into 10 mL citrated Vacutainer tubes. The blood was centrifuged for 15 minutes at 150×g at room temperature, and platelet-rich plasma (PRP) was removed. The remaining blood was centrifuged for 15 minutes at 1500×g at room temperature, and platelet-poor plasma (PPP) was removed. Samples were assayed on a aggregometer (PAP-4 Platelet Aggregation Profiler), using PPP as the blank (100% transmittance). 200 μL of PRP was added to each micro test tube, and transmittance was set to 0%. 20 μL of various agonists (ADP, collagen, arachidonate, epinephrine, thrombin) were added to each tube, and the aggregation profiles were plotted (% transmittance versus time). The results are expressed as % inhibition of agonist-induced platelet aggregation. For the IC50 evaluation, the test compounds were added at various concentrations prior to the activation of the platelets.
Ester prodrugs were preincubated (10^-3 M F.C.) with 100 IU/mL Porcine liver esterase (Sigma Chemical Co., St. Louis, Mo., #E-3128) for 2 hours at 37° C. Aliquots are then diluted in 0.1M Tris, pH 7.4, to the desired concentrations. Aliquots of 20 μl of the esterase pretreated prodrugs are added to 200 μl of human platelet rich plasma. Samples were placed in platelet profiler (aggregometer) for 8 minutes at 37° C., followed by the addition of 100 μM Adenosine Diphosphate, (Sigma Chemical Co., St. Louis, Mo., #A-6521), to induce platelet aggregation. Platelet aggregation was allowed to proceed for 5 minutes. Percent inhibition is calculated using percent aggregation in the presence of the test compound divided by percent aggregation of control, times 100. This value is subtracted from 100, yielding percent inhibition. Calculation of IC50 is performed on a Texas Instruments TI59 with an IC50 program.
Table A below sets forth the antiplatelet activity of representative compounds of the present invention. The indicated compounds were tested for their ability to inhibit platelet aggregation (using platelet rich plasma (PRP)). The IC50 value (the concentration of antagonist which inhibits platelet aggregation by 50% relative to a control lacking the antagonist) is shown. In Table 5 the IC50 values are expressed as: +++=IC50 of <10 μM; ++=IC50 of 10-50 μM; +=IC50 of 50-100 μM (μM=micromolar).
In general, IC50 refers to the point on the concentration scale where inhibition reaches its midpoint. Take `Cn1cnc(S(=O)(=O)NC(CNC(=O)CC2CC(c3ccc(C(=N)N)cc3)=NO2)C(=O)O)c1` (stereo not shown) [Example 643]: the IC50 is below 10 µM.

Consider `COC(=O)[C@H](CNC(=O)CC1CC(c2ccc(C(=N)N)nc2)=NO1)NS(=O)(=O)c1cccc(C)c1` (stereo partly shown) [Example 516, Methyl N^2-(m-toluenesulfonyl)-N^3-[3-(2-amidinopyrid-5-yl)isoxazolin-5-ylacetyl]-S-2,3-diaminopropionate hydrochloric acid salt], for which the IC50 was below 10 µM.

For `N=C(N)NCCCC1=NOC(CC(=O)NCC(NC(=O)OCc2ccccc2)C(=O)O)C1` (stereo not shown) [Example 1694], the IC50 was below 10 µM.

For `CCOC(=O)CC(NC(=O)CC1CC(c2ccc(C(=N)N)cc2)=NO1)C(=O)OCC` (stereo not shown) [Example 439], the 50% inhibitory concentration (IC50) was below 10 µM.

For `COC(=O)C(CNC(=O)CC1CC(c2ccc(C(=N)N)cc2)=NO1)NS(=O)(=O)NC1CCCCC1` (stereo not shown) [Example 508], the IC50 was below 10 µM.

Consider `COC(=O)CC(C#C[Si](C)(C)C)NC(=O)CC1CC(c2ccc(C(=N)N)cc2)=NO1` (stereo not shown) [Example 457], for which the IC50 was below 10 µM.

As for `COC(=O)C(CNC(=O)CC1CC(c2ccc(C(=N)N)cc2)=NO1)NS(=O)(=O)c1cccc(C(F)(F)F)c1` (stereo not shown) [Example 475], the IC50 was below 10 µM.

On to `COC(=O)CC(CNS(=O)(=O)c1ccccc1)NC(=O)CC1CC(c2ccc(C(=N)N)cc2)=NO1` (racemic) [Example 359, Methyl 3(R,S) -{5(R,S)-N-[3-(4-amidinophenyl)isoxazolin-5-ylacetyl]amino}-4-(phenylsulfonamido)butanoate . trifluoroacetic acid salt], for which the IC50 is below 10 µM.

Consider `CCOC(=O)CC(NC(=O)CC1CC(c2ccc(C(=N)N)cc2)=NO1)C(=O)NCC12CC3CC(CC(C3)C1)C2` (stereo not shown) [Example 462], for which the IC50 was below 10 µM.

Turning to `COC(=O)C(CNC(=O)CC1CC(c2ccc(C(=N)N)cc2)=NO1)NS(=O)(=O)c1sc(NC(C)=O)nc1C` (stereo not shown) [Example 553], the IC50 is below 10 µM.

With `COC(=O)C(CNC(=O)CC1CC(c2ccc(C(=N)N)cc2)=NO1)NS(=O)(=O)c1ccc(Cl)cc1` (stereo not shown) [Example 487], the IC50 was below 10 µM.

On to `CCc1ccc(C(=O)NC(CNC(=O)CC2CC(c3ccc(C(=N)N)cc3)=NO2)C(=O)OC)cc1` (stereo not shown) [Example 522], for which the IC50 was below 10 µM.

Take `COC(=O)C(CNC(=O)CC1CC(c2ccc(C(N)=NC(=O)OC(C)(C)C)cc2)=NO1)NC(=O)OCc1ccccc1` (stereo not shown) [Example 440]: the IC50 is below 10 µM.

For `N=C(N)NCCC1CC(CCC(=O)NCC(NC(=O)OCc2ccccc2)C(=O)O)=NO1` (stereo not shown) [Example 2280], the half-maximal inhibitory concentration (IC50) is below 10 µM.

For `COC(=O)C(CNC(=O)CC1CC(c2ccc(C(=N)N)cc2)=NO1)NS(=O)(=O)c1ccccc1Br` (stereo not shown) [Example 543], the IC50 was below 10 µM.

Turning to `COC(=O)[C@H](CNC(=O)CC1CC(c2ccc(C(=N)N)cc2)=NO1)NS(=O)(=O)c1ccc(C)cc1` (stereo partly shown) [Example 327], the IC50 is below 10 µM.

In the case of `COC(=O)C(CNC(=O)CC1CC(c2ccc(C(=N)N)cc2)=NO1)NS(=O)(=O)c1ccc(C(C)C)cc1` (stereo not shown) [Example 492], the IC50 was below 10 µM.

As to `CCNC(=N)c1ccc(C2=NOC(CC(=O)NCC(NS(=O)(=O)c3ccccc3C)C(=O)OC)C2)cc1` (stereo not shown) [Example 2115], the IC50 was below 10 µM.

As to `COC(=O)C(CNC(=O)CC1CC(c2ccc(C(=N)N)cc2)=NO1)NS(=O)(=O)c1ccc(-c2ccccc2)cc1` (stereo not shown) [Example 546], the IC50 was below 10 µM.

As for `CC(C)(C)OC(=O)NC(=N)c1ccc(C2=NOC(CC(=O)NCC(NS(=O)(=O)c3ccc(S(=O)(=O)c4ccccc4)s3)C(=O)O)C2)cc1` (stereo not shown) [Example 2120], the IC50 was below 10 µM.

For `CCCCOC(=O)N[C@@H](CNC(=O)CC1CC(c2ccc(C(=N)N)nc2)=NO1)C(=O)OC` (stereo partly shown) [Example 515, Methyl N^2-(n-butyloxycarbonyl)-N^3-[3-(2-amidinopyrid-5-yl)isoxazolin-5-ylacetyl]-S-2,3-diaminopropionate hydrochloric acid salt], the IC50 was below 10 µM.

`Cc1noc(C)c1S(=O)(=O)N[C@@H](CNC(=O)C[C@H]1CC(c2ccc(C(=N)N)cc2)=NO1)C(=O)O` [Example 2104]: the IC50 was below 10 µM.

For the compound `COC(=O)C(CNC(=O)CC1CC(c2ccc(C(=N)N)cc2)=NO1)NS(=O)(=O)Nc1ccccc1` (stereo not shown) [Example 509], the IC50 was below 10 µM.

Take `COC(=O)C(CNC(=O)CC1CC(c2ccc(C(=N)N)cc2)=NO1)NS(=O)(=O)c1cccc(C)c1` (stereo not shown) [Example 473]: the IC50 was below 10 µM.

`COC(=O)C(CNC(=O)CC1CC(c2ccc(C(=N)N)cc2)=NO1)NS(=O)(=O)c1ccccc1F` (stereo not shown) [Example 482]: the IC50 was below 10 µM.

In the case of `COC(=O)CC(CC(=O)OC)NC(=O)CC1CC(c2ccc(C(=N)N)cc2)=NO1` (racemic) [Example 365, Methyl {5(R,S)-N-[3-(4-amidinophenyl)isoxazolin-5-ylacetyl]amino}-4-(methoxycarbonyl)butanoate . trifluoroacetic acid salt], the IC50 is below 10 µM.

For `COC(=O)C(CNC(=O)CC1CC(c2ccc(C(=N)N)cc2)=NO1)NS(=O)(=O)NC(C)C` (stereo not shown) [Example 507], the IC50 is below 10 µM.

Consider `COC(=O)CCC(CC(=O)OC)NC(=O)CC1CC(c2ccc(C(=N)N)cc2)=NO1` (racemic) [Example 368, trifluoroacetic acid salt], for which the IC50 is below 10 µM.

Consider `COC(=O)C(CNC(=O)CC1CC(c2ccc(C(=N)N)cc2)=NO1)NS(=O)(=O)c1ccc(S(=O)(=O)c2ccccc2)s1` (stereo not shown) [Example 2118], for which the IC50 is below 10 µM.

Turning to `COC(=O)c1ccccc1S(=O)(=O)NC(CNC(=O)CC1CC(c2ccc(C(=N)N)cc2)=NO1)C(=O)OC` (stereo not shown) [Example 477], the IC50 was below 10 µM.

For the compound `COC(=O)C(CNC(=O)Cc1cc(-c2ccc(C(=N)N)cc2)no1)NC(=O)OCc1ccccc1` (stereo not shown) [Example 727], the IC50 is below 10 µM.

On to `N=C(N)NCCCC1CC(C(=O)NCC(NC(=O)OCc2ccccc2)C(=O)O)=NO1` (stereo not shown) [Example 1284], for which the IC50 was below 10 µM.

Take `COC(=O)C(CNC(=O)CC1CC(c2ccc(C(=N)N)cc2)=NO1)NC(=O)c1ccc2ccccc2c1` (stereo not shown) [Example 524]: the IC50 was below 10 µM.

The test is the same for the next values; noted with them: Platelet, without esterase, read-out: Platelet Aggregation Assay IC50 (without esterase).
With `O=C(N[C@H](C(=O)O)C1CC(c2ccc(OCCC3CCNCC3)cc2)=NO1)OCc1ccccc1` (single isomer, unassigned) [4 (isomer A)], the IC50 was in the range of 10 to 50 µM.

As for `CCCCCCOC(=O)NC(CNC(=O)CC1CC(c2ccc(C(=N)N)cc2)=NO1)C(=O)O` (stereo not shown) [Example 530], the IC50 was below 10 µM.

On to `O=C(O)CC1CC(c2ccc(OCCC3CCNCC3)cc2)=NO1` (racemic) [Example 1, 3-(4-[2-Piperidin-4-yl)ethoxy]phenyl]-(5R,S)-isoxazolin-5-ylacetic Acid, Trifluoroacetic Acid Salt], for which the IC50 is below 10 µM.

In the case of `N=C(N)c1ccc(C2=NOC(CC(=O)NC(CC(=O)O)c3ccccc3)C2)cc1` (racemic) [Example 43, N-[3-(4-Amidinophenyl)isoxazolin-5(R,S)-ylacetyl]-(R,S)-3-amino-3-phenylpropanoic Acid], the IC50 was below 10 µM.

Turning to `O=C(O)CCC1CC(c2ccc(OCC3CCNCC3)cc2)=NO1` (racemic) [Example 6, 3-(3-[4-(Piperidin-4-ylmethoxy)phenyl]-(5R,S)-isoxazolin-5-yl)propionic Acid, Trifluoroacetic Acid Salt], the IC50 is below 10 µM.

In the case of `O=C(O)CCCN1C(=O)CC2(CC(CCCC3CCNCC3)=NO2)C1=O` (stereo not shown) [Example 373], the IC50 was 10 to 50 µM.

Turning to `N=C(N)c1ccc(C2=NOC(CC(=O)NCC(NC(=O)OCCC3CC3)C(=O)O)C2)cc1` (stereo not shown) [Example 534], the IC50 was below 10 µM.

Still in this test, the particulars now being: preincubated with 100 IU/mL porcine liver esterase 2 hours at 37° C., 100 μM ADP, read-out: Platelet Aggregation Assay IC50 (with esterase).
Regarding `COC(=O)[C@H](CNC(=O)CC1CC(c2ccc(C(=N)N)cc2)=NO1)NS(=O)(=O)c1cccc(C)c1` (stereo partly drawn) [Example 473B, Methyl N^2-3-methylphenylsulfonyl-N^3-[3-(4-amidinophenyl)-5S-ylacetyl]-S-2,3-diaminopropionate trifluoroacetic acid salt], the IC50 is below 10 µM.

Consider `COC(=O)C[C@@H](CCc1ccccc1)NC(=O)C[C@H]1CC(c2ccc(C(=N)N)cc2)=NO1` [120C (3R)], for which the IC50 is below 10 µM.

The test is the same for the next values; noted with them: without esterase, read-out: Platelet Aggregation Assay IC50 (without esterase).
As to `CCCCS(=O)(=O)NC(CC1CC(c2ccc(OCC3CCNCC3)cc2)=NO1)C(=O)O` (single isomer, unassigned) [9 (isomer B), 3-(3-[4-{(Piperidin-4-yl)methoxy}phenyl]isoxazolin-5-yl{[butanesulfonyl]amino}]propionic Acid, Trifluoroacetic Acid Salt (Less Polar Diastereomer)], the IC50 is below 10 µM.

Source of the values: US5849736A, “Isoxazoline and isoxazole fibrinogen receptor antagonists” (The DuPont Merck Pharmaceutical Company, priority 1995, dated 1998).
